From BindingDB's records for doi:10.1016/j.chembiol.2011.11.010 (Harvard Medical School, 2012) come the findings set out here.

Broadly, the IC50 is the concentration that inhibits the measured activity by half. Higher therefore signals weaker potency.

Assay in all cases: JNK Kinase Assay
Experiment [1] addresses Mitogen-activated protein kinase 10 (Homo sapiens, UniProt P53779).
Description: (§1) The binding results were confirmed by measuring IC50 for the inhibition of JNK kinase activity by using Z'-LYTE assay format.
Experiment [2] has as its target Mitogen-activated protein kinase 8 (Homo sapiens, UniProt P45983).
Description: as §1
Experiment [3] addresses Mitogen-activated protein kinase 9 (Homo sapiens, UniProt P45984).
Description: as §1

Sequence of Mitogen-activated protein kinase 9 (P45984 whole entry): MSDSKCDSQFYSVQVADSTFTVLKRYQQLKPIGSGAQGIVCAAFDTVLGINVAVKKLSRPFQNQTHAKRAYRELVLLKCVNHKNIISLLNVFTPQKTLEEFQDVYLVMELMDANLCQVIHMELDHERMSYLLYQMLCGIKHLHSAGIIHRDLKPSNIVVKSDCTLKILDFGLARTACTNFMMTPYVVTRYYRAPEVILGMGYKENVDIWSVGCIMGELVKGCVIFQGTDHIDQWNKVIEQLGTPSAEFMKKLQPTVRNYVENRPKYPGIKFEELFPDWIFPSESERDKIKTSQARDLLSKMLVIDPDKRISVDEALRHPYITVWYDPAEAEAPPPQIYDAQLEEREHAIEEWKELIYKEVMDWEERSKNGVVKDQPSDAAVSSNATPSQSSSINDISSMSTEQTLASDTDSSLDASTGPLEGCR
Sequence of Mitogen-activated protein kinase 10 (P53779 whole entry): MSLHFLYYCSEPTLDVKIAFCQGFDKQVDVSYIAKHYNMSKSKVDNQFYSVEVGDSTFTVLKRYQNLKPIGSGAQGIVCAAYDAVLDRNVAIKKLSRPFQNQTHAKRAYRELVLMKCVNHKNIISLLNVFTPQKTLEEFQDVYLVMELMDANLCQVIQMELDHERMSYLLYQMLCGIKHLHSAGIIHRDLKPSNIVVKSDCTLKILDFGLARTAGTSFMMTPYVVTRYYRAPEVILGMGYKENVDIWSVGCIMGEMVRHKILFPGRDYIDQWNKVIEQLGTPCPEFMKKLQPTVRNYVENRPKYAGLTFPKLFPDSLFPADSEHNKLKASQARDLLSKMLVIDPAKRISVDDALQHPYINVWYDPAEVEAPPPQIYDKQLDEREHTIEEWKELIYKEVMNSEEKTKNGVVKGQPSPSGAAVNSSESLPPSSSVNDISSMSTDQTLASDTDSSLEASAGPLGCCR
Sequence of Mitogen-activated protein kinase 8 (P45983 whole entry): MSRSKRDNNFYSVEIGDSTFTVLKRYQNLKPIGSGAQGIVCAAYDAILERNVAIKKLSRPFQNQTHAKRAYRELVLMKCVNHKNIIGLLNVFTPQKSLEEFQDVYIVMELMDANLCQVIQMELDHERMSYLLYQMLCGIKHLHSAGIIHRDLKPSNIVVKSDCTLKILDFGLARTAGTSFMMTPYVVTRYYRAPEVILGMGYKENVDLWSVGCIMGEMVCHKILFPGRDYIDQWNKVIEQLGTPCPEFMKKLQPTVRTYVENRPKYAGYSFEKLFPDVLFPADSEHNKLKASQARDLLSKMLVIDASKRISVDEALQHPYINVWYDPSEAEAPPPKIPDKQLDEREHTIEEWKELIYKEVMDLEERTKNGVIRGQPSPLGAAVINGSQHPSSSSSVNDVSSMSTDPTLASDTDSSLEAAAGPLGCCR

In the case of `O=C1c2ccccc2-c2n[nH]c3cccc1c23`, the IC50 in experiment [1] amounted to 0.19 µM.

As to `Cc1ccc(NC(=O)c2ccc(NC(=O)/C=C/CN(C)C)cc2)cc1Nc1nccc(-c2cccnc2)n1` [JNK-IN-1], the IC50 in experiment [1] was 7.75 µM; in experiment [2], 7.78 µM; in experiment [3], 4.23 µM.

On to `CN(C)C/C=C/C(=O)Nc1ccc(C(=O)Nc2cccc(Nc3nccc(-c4cccnc4)n3)c2)cc1` [JNK-IN-2], for which the values for the IC50 in experiment [2] and in experiment [3] were 0.809 µM and 1.14 µM, respectively.

As to `CN(C)C/C=C/C(=O)Nc1ccc(C(=O)Nc2cccc(Oc3nccc(-c4cccnc4)n3)c2)cc1` [JNK-IN-3], the IC50 in experiment [1], in experiment [2] and in experiment [3] was greater than 10 µM throughout.

Take `CN(C)C/C=C/C(=O)NCc1ccc(C(=O)Nc2cccc(Nc3nccc(-c4cccnc4)n3)c2)cc1` [JNK-IN-4]: the results for the half-maximal inhibitory concentration (IC50) in experiment [1], in experiment [2] and in experiment [3] were 7.22 µM, 2.39 µM and 5.46 µM, respectively.

Regarding `CN(C)C/C=C/C(=O)Nc1cccc(C(=O)Nc2ccc(Nc3nccc(C(C#N)c4nc5ccccc5s4)n3)cc2)c1` (configuration not stated) [JNK-IN-12], the IC50 in experiment [1] is 0.011 µM; in experiment [2] it was 0.013 µM; in experiment [3] it was 0.0113 µM.

With `N#CC(c1ccnc(NCCc2cccnc2)n1)c1nc2ccccc2s1` (configuration not stated) [[3H-Benzothiazol-(2Z)-ylidene]-[2-(2-pyridin-3-yl-ethylamino)-pyrimidin-4-yl]-acetonitrile], the IC50 in experiment [2] was found to be 0.15 µM; in experiment [3] it was 0.22 µM.
